Earlier results on three compounds are cited in patent publication US8440668B2, “Beta-amino heterocyclic dipeptidyl peptidase inhibitors for the treatment of type 2 diabetes” (Merck Sharp & Dohme Corp, priority 2001, dated 2013).

One series concerns the target T1, DP-IV (Homo sapiens, UniProt P27487).
T1 construct: GRF is rapidly degraded in plasma to GRF[3-44]; from tissue

The next series relates to rats. Conditions: Transplantation 63, 1495-1500 (1997).
In another series the test system is mouse. Conditions: cyclophosphamide-induced neutropenia, WO 99/56753.

T1 sequence (P27487 39-766 limits assumed): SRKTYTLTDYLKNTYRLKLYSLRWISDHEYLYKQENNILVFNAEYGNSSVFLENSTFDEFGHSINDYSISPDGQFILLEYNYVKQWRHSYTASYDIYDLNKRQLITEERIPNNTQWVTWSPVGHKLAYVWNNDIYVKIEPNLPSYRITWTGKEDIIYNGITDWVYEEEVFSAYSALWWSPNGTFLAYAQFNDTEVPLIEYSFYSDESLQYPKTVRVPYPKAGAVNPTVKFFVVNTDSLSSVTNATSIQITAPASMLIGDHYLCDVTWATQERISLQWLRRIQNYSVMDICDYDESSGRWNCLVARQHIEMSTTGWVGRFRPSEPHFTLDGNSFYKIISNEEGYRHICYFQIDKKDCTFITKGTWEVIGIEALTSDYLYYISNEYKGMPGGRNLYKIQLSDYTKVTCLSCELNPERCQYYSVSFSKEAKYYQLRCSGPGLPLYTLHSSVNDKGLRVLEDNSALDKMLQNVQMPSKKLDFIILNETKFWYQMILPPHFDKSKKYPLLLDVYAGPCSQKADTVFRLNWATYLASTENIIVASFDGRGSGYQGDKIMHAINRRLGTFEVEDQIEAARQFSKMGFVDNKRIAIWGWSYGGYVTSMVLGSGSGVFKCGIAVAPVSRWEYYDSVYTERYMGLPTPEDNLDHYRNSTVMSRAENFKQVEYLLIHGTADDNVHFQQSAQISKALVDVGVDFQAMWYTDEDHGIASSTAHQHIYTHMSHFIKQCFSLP

In the case of diprotin A, the “degradation of GRF in plasma to GRF[3-44]” value at DP-IV is reported as “prevented”.
Consider `CC(C)N1CCC(c2ccccc2)(c2ccccc2)CC1` [Prodipine, Pro-Pro-diphenyl-phosphonate], for which the cardiac allograft survival entry in the series on rats is reported as “double cardiac allograft survival in rats from day 7 to day 14”.
As to `CC(C)[C@H](N)C(=O)N1CCC[C@H]1B(O)O` [Val-Boro-Pro], the hematopoiesis result with mouse is on record as “stimulated hematopoiesis”.
